In ChEMBL document CHEMBL3808309, “Interpreting the behavior of concentration-response curves of hyaluronidase inhibitors under DMSO-perturbed assay conditions” (Bioorg Med Chem Lett, 2016):
The source made the active and inactive calls. The rule behind the calls is not given here.

How the values were obtained:
[1] = Inhibition of bovine testis hyaluronidase using hyaluronic acid as substrate preincubated for 20 mins followed by incubation with CaCl2 for 20 mins and substrate for 10 mins by colorimetric Morgan-Elson method; set-up: species or system Bos taurus
[2] = Inhibition of bovine testis hyaluronidase using hyaluronic acid as substrate preincubated with CaCl2 for 20 mins followed by incubation with compound for 20 mins and substrate for 10 mins by colorimetric Morgan-Elson method; set-up: species or system Bos taurus
[3] = Inhibition of bovine testis hyaluronidase using hyaluronic acid as substrate preincubated with CaCl2 for 20 mins followed by incubation with of compound for 20 mins and substrate for 10 mins by colorimetric Morgan-Elson method in presence of 0.05% triton X-100; set-up: species or system Bos taurus
[4] = Inhibition of bovine testis hyaluronidase using hyaluronic acid as substrate preincubated with CaCl2 for 20 mins followed by incubation with compound for 20 mins and substrate for 10 mins by colorimetric Morgan-Elson method in presence of BSA; set-up: species or system Bos taurus
Bos taurus [5] = species on record: Bos taurus; assay: Inhibition of bovine testis hyaluronidase preincubated with CaCl2 for 20 mins followed by incubation with compound for 20 mins and substrate for 10 mins by colorimetric Morgan-Elson method in presence of up to 21% DMSO
[6] = Inhibition of bovine testis hyaluronidase preincubated with CaCl2 for 20 mins followed by incubation with compound for 20 mins and substrate for 10 mins by colorimetric Morgan-Elson method in presence of urea; set-up: species or system Bos taurus
Bos taurus [7] = species on record: Bos taurus; assay: Ratio of IC50 for inhibition of bovine testis hyaluronidase preincubated with CaCl2 for 20 mins followed by addition of compound to IC50 for inhibition of bovine testis hyaluronidase preincubated for 20 mins followed by addition of CaCl2
Bos taurus [8] = species on record: Bos taurus; assay: Inhibition of bovine testis hyaluronidase using hyaluronic acid as substrate at 3000 uM preincubated with CaCl2 for 20 mins followed by incubation with compound for 20 mins and substrate for 10 mins by colorimetric Morgan-Elson method in presence of 0.05% triton X-100

Compound | IC50 [1] [µM] | IC50 [2] [µM] | IC50 [3] [µM] | IC50 [4] [µM] | inhibition (Bos taurus [5]) | IC50 [6] [µM] | Ratio IC50 (Bos taurus [7]) | inhibition (Bos taurus [8]) [%]
O=C(O)[C@H]1O[C@@H](Oc2cc3oc(-c4ccccc4)cc(=O)c3c(O)c2O)[C@H](O)[C@@H](O)[C@@H]1O [BAICALIN] | 450 | 1400 | 1000 | 1600 | inactive |  |  | 
O=C(O)c1cc(=O)c2c(OCC(O)COc3cccc4oc(C(=O)O)cc(=O)c34)cccc2o1 [CROMOLYN SODIUM] | 330 | 1700 | 1700 | 1600 | inactive | 1600 |  | 
COc1ccc2c(c1)c(CC(=O)O)c(C)n2C(=O)c1ccc(Cl)cc1 [INDOMETHACIN] | 340 | 1400 |  | 2000 |  |  |  | < 50

These reach a lower IC50 [1]. Values come first.

IC50 [1] [µM] | IC50 [2] [µM] | IC50 [3] [µM] | IC50 [4] [µM] | inhibition (Bos taurus [5]) | IC50 [6] [µM] | Ratio IC50 (Bos taurus [7]) | inhibition (Bos taurus [8]) [%] | Compound
23 | 47 | 480 | 240 | Active |  |  |  | CCCCCCCCCCCCCCCC(=O)OC[C@H](O)C1OC(=O)C(O)=C1O (some centres not stated)
8.5 | 29 | 40 | 61 | inactive | 31 | > 3 |  | CC1(C)[C@@H](O[C@H]2O[C@H](C(=O)O)[C@@H](O)[C@H](O)[C@H]2O[C@@H]2O[C@H](C(=O)O)[C@@H](O)[C@H](O)[C@H]2O)CC[C@]2(C)[C@H]3C(=O)C=C4[C@@H]5C[C@@](C)(C(=O)O)CC[C@]5(C)CC[C@@]4(C)[C@]3(C)CC[C@@H]12 [GLYCYRRHIZIN]
